Results on one compound are retold here after US20240285612A1, “COMPOSITIONS COMPRISING AN AGONIST OF 5-HYDROXYTRYPTAMINE (5-HT) RECEPTOR SUBTYPE 3” (LDN Pharma Limited, priority 2021, published 2024).

The subject of assay [1] is 5-HT receptor 3A (HTR3A), transcript variant 2 mRNA. The experiment in a line: Microarray gene expression of HTR3A transcript variant 2 mRNA in CD3+ lymphocytes treated 4 h. It is filed as cell-based, human. The procedure:
(§1) CD3+ lymphocytes were isolated from the blood of haematologically normal volunteers. Cells placed into […] flasks at a concentration of 1×10^6/ml, and left to equilibrate in an incubator with a humidified atmosphere and 5% CO2 in air at 37° C. […] RNA extraction was performed using Trizol according to standard procedures, before being processed for microarray analysis according to the standard methodologies. Briefly, equal amounts of biotinylated cRNA was hybridised to the Illumina human HT12-v3 arrays for 18 h and subsequently processed according to manufacturer's instructions before scanning on an Illumina BeadArray Reader. The image data were processed using default values in GenomeStudio v2009.1 with imputation of missing data, before loading onto GeneSpring v9.0 for data normalisation and filtering. Data analyses were performed using Excel software, and the ratio of gene expression signals in treated vs. untreated calculated.

In assay [2] the test system is 5-HT receptor 3A (HTR3A), transcript variant 1 mRNA. The experiment in a line: Microarray gene expression of HTR3A transcript variant 1 mRNA in CD3+ lymphocytes treated 4 h. It is filed as cell-based, human. The note with it: probe ILMN_1681492, HTR3A transcript variant 1, low dose naltrexone 10 nM. On the procedure:
as §1

For the compound `O=C1CC[C@@]2(O)[C@H]3Cc4ccc(O)c5c4[C@@]2(CCN3CC2CC2)[C@H]1O5` [NTX, morphinan-6-one, 17-(cyclopropylmethyl)-4,5-epoxy-3,14-dihydroxy-(5a)], the “levels of mRNA for one or more of 5-HT3 receptor proteins” value in assay [1] (both high dose (10 uM) and low dose (10 nM) naltrexone, result in words) is on record as “selectively increase the levels of mRNA”. The “gene expression signal LDN” value in assay [1] (probe ILMN_2371079, HTR3A transcript variant 2, low dose naltrexone 10 nM, 4 h, CD3+ lymphocytes) is listed as 124.70; in assay [2], 94.00. The “gene expression signal NTX” value in assay [1] (probe ILMN_2371079, HTR3A transcript variant 2, naltrexone 10 uM, 4 h, CD3+ lymphocytes) came to 151.75.
